Patent US10053455B2, “Diazaspiroalkaneone-substituted oxazole derivatives as spleen tyrosine kinase inhibitors” (AB SCIENCE, priority 2014, dated 2018)
Like-named read-outs stand apart in the source and are kept apart here.

Experiments:
[1] = Early bioavailability determination (plasma PK); type: in vivo, Sprague Dawley rats; settings: rat; for AUC: read-out: AUC24
Procedure: Early screen was conducted to estimate plasma concentrations of test compounds obtained after oral or intravenous administration to Sprague Dawley rats. DMSO was used as vehicle for oral and intravenous administration. In short, 4 male Sprague Dawley rats around 5 weeks old were used. Drugs were administered PO (10 mg/kg) or IV (2 mg/kg). Blood samples were collected at defined time schedule and analysed using LC-MS/MS determination for PK parameters calculations.

[2] = system: Murine bone marrow mast cells (BMMCs); assay: IgE-mediated mast cell degranulation assay (β-hexosaminidase release); type: cell-based, C57BL/6J mice; settings: Mus musculus, BMMC
Procedure: In vitro mast cell degranulation assay monitored by released of β-hexosaminidase. Murine bone marrow mast cells (BMMCs) are obtained by flushing bone marrow cells from the femurs of C57BL/6J mice, then cultured for 3-4 weeks in RPMI containing mouse recombinant IL-3 (30 ng/ml). RBL-2H3 is a rat basophile cell line maintained in monolayer culture in EMEM supplemented with 20% FCS, 1 mM Glutamine and 1× antibiotics. Cells were sensitized overnight with 0.2 μg/ml anti-DNP-IgE (Sigma-Aldrich D8406). […] After incubation 90 min at 37° C., the reaction was quenched by addition of 100 μl of sodium carbonate buffer (0.1M Na2CO3/NaHCO3 pH 10.0). β-hexosaminidase activity was quantified by reading plate absorbance at 405 nm with reference at 620 nm using a PolarSTAR reader plate (BMG labech).
The activity of anti-SYK compounds was tested in an IgE-mediated mast cell degranulation assay. SYK has been identified to be critical for the initiation of mast cell mediator release following the aggregation of FcεRI.

Jak3 = Jak3 (Homo sapiens (Human), UniProt P52333); assay: HTRF kinase assay, Jak3; type: biochemical; settings: enzymatic determination
Procedure: (§1) Most of the kinases tested in this study were cloned, expressed and purified in the facilities of the inventors. They were expressed either as N-terminus hexahistidine-, hexahistidine-asparagine- or GST-tagged enzymes in a baculovirus or in a Colibacille expression system. Remaining enzymes (JAKs) were purchased from Millipore or Proqinase. For each enzyme, steady state kinetic parameters were determined and validated with known inhibitors.
(§2) The analysis of the effect of compounds on kinase activity was assessed with the HTRF® KinEASE assay (Cisbio International), an immuno-assay based on the quantification of the level of phosphorylation of a biotinylated peptide substrate using anti-phospho-specific antibody labeled with Europium (Eu^3+) cryptate. This assay comprises two steps: —an enzymatic step, during which the peptide substrate, the kinase, ATP, Mg^2+ and/or Mn^2+ are incubated with varying concentration of drug (from 0 to 10 μM); —a detection step, at the end of the reaction (stopped by addition of EDTA which chelates Mg^2+), the antibody anti-phospho peptide-Eu^3+ (emission 620 nm) and streptavidin XL-665 (emission 665 nm) are added to the reaction mix. […] Results are expressed in delta fluorescence (DF) unit defined as follow DF %=[(ratio−ratio blank)/(ratio blank)]*100, where ratio=(665 nm/620 nm)*10^4. […]

c-Met = c-Met (Homo sapiens (Human), UniProt P08581); assay: HTRF kinase assay, c-Met; type: biochemical; settings: enzymatic determination
Procedure: as §1, §2

VEGFR1 = VEGFR1 (Homo sapiens (Human), UniProt P17948); assay: HTRF kinase assay, VEGFR1; type: biochemical; settings: enzymatic determination
Procedure: as §1, §2

HepG2 tumor cell line = assay: Mitochondrial ToxGlo assay (ATP production and cytotoxicity); type: cell-based; settings: HepG2, 20 μM, 2 hours
Procedure: Drug-induced mitochondrial toxicity was evaluated by monitoring oxygen consumption using a Clark oxygen electrode on mitochondria isolated from heart of healthy mouse (Mitologics S.A.S, France). Briefly, isolated mitochondria are placed at 37° C. in a sealed chamber that is exposed to the surface of a Clark oxygen electrode. The presence of oxygen caused the electrode to deliver a current to the oxygen monitor, which amplified the current and converted it to a voltage output that was directly proportional to the concentration of oxygen in the chamber. Drug-induced mitochondrial toxicity was also evaluated by monitoring mitochondrial ATP production using a cell-based assay (Mitochondrial ToxGlo™ assay, Promega Corporation (cat#G8000)). […] The test was performed on HepG2 tumor cell line grown in galactose medium in order to force the cancer cells to produce ATP via oxidative phosphorylation (crabtree effect). Cells were treated for 2 hours with 20 μM drug before analysis of ATP detection (Luminescent signal) and cytotoxicity (Fluorescent signal) as described by manufacturers using PHERAstar and POLARstar OMEGA microplate readers respectively (BMG Labteck Sari).

TNFα = assay: FcεRI and Kit-induced TNFα cytokine release in BMMCs; type: cell-based, C57BL/6J mice
Procedure: Murine bone marrow mast cells (BMMCs) are obtained by flushing bone marrow cells from the femurs of C57BL/6J mice, and then cultured for 3-4 weeks in RPMI containing mouse recombinant IL-3 (30 ng/ml). Cells were sensitized overnight in IL3-depleted culture medium with 0.1-0.2 μg/ml anti-DNP-IgE (Sigma-Aldrich D8406). Cells were preincubated with inhibitors for 30 min, and then stimulated with 10 ng/ml antigen (Ag) and/or Stem Cell Factor (SCF) (30 ng/ml). The cells were incubated for 6 h. The supernatants were harvested, and the cytokine content measured using CISBIO IL6 and TNFα HTRF assay (cat#63ADKEBU043 and 6FMTNPEB respectively).

[3] = male, Sprague Dawley, plasma, IV, 2 mg/kg, mean
[4] = male, Sprague Dawley, plasma, PO, 10 mg/kg, mean

VEGFR1, sequence (P17948 27-1338, species assumed): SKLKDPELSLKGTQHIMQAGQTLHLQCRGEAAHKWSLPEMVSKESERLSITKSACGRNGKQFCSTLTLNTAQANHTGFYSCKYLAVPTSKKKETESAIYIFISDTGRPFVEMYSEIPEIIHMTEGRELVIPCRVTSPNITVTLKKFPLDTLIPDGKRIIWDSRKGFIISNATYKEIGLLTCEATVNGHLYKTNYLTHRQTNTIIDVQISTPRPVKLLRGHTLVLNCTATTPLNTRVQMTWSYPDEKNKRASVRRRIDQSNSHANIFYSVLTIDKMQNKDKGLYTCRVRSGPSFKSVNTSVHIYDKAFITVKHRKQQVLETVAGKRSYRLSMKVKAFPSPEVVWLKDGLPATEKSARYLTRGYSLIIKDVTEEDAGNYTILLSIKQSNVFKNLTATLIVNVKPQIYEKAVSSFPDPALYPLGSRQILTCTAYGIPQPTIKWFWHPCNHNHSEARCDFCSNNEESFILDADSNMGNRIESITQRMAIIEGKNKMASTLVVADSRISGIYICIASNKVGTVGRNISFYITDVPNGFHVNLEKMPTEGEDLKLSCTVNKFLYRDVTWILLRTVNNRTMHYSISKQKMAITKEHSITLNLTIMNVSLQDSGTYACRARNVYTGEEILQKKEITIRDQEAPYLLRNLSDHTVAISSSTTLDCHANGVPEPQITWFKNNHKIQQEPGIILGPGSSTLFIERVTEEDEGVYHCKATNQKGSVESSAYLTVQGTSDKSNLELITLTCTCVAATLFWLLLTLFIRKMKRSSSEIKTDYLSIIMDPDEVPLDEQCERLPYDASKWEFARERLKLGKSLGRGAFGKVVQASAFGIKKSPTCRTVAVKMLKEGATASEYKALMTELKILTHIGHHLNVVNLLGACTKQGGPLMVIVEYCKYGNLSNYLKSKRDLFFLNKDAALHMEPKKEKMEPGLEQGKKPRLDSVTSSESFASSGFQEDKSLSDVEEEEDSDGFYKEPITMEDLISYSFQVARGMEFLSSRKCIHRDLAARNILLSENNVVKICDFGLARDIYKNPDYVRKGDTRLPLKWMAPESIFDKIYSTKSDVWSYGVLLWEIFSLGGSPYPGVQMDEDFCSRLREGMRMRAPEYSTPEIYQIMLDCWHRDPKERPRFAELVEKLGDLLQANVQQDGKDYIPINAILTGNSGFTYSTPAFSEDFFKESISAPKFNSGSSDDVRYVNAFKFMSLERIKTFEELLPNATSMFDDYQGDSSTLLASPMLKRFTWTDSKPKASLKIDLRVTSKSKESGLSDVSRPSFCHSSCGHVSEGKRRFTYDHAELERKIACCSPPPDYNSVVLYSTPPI
c-Met, sequence (P08581 25-1390): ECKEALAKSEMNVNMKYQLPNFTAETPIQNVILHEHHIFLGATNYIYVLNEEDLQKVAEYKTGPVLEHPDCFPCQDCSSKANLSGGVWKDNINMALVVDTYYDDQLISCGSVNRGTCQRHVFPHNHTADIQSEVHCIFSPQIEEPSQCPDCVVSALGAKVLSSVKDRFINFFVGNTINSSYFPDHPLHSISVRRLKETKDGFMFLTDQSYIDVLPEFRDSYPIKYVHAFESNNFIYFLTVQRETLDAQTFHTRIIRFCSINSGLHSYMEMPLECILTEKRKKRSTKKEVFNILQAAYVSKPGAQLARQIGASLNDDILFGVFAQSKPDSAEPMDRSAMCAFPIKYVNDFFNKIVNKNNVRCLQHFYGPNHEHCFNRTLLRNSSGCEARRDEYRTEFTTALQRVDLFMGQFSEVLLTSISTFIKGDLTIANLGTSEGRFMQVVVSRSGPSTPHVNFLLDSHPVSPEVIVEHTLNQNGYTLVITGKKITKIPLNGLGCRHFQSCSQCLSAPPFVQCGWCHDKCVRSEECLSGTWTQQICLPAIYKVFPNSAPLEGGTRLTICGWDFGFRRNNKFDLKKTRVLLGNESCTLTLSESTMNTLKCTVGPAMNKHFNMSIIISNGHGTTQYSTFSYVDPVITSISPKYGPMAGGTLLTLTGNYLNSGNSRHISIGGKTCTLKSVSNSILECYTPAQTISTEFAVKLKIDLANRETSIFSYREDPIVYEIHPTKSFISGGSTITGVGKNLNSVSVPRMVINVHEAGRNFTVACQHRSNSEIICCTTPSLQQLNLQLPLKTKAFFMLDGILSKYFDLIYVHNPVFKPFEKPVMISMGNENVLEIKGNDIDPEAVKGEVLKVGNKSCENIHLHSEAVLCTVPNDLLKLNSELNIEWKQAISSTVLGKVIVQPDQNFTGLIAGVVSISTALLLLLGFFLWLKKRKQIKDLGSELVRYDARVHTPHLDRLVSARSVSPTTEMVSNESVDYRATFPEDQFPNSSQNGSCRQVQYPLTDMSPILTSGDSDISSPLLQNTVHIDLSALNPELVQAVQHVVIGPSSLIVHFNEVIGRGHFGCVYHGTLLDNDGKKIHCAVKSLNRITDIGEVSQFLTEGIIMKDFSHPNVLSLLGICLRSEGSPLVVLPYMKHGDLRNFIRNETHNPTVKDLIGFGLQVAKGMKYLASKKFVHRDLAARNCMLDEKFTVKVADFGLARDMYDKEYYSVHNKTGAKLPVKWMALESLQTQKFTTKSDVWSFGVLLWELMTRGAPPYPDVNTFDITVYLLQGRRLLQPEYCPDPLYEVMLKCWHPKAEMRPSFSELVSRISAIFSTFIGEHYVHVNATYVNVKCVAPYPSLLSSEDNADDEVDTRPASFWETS
Jak3, sequence (P52333 whole entry): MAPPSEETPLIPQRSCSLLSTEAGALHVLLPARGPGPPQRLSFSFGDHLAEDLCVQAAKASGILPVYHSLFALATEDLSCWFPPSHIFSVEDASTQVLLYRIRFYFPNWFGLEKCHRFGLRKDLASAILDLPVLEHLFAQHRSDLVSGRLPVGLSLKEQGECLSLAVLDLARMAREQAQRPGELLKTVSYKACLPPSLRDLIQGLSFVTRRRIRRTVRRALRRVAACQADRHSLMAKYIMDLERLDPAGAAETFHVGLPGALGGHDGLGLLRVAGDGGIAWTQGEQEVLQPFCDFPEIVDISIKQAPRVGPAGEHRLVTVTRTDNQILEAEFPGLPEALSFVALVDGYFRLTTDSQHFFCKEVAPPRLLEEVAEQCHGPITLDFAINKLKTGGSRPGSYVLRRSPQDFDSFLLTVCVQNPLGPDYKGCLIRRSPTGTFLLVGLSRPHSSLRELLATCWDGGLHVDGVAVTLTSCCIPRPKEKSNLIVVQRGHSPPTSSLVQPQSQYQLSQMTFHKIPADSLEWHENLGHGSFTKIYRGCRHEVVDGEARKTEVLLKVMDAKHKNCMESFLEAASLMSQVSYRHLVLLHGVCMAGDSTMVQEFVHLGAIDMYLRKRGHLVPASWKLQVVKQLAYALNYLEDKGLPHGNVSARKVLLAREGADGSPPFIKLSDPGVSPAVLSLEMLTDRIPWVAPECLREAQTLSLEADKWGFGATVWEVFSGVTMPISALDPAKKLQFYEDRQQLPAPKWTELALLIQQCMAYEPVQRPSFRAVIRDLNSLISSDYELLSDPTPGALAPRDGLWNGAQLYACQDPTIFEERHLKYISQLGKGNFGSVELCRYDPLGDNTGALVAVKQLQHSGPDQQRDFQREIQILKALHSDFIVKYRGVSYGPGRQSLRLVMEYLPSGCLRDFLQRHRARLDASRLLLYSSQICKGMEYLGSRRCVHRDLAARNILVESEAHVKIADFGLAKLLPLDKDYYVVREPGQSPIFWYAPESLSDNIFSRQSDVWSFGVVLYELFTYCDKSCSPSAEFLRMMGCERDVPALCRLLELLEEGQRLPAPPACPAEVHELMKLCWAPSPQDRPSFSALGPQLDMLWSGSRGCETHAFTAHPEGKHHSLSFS

For `Cc1ccnc(Nc2cccc(-c3cnc(N4CCNC(=O)C45CC5)o3)c2)n1` [Compound 001, 4-{5-[3-(4-Methyl-pyrimidin-2-ylamino)-phenyl]-oxazol-2-yl}-4,7-diaza-spiro[2.5]octan-8-one], the Cl ([1]; PO, 10 mg/kg, mean) was 17 mL/min/kg, the Vd ([1]; PO, 10 mg/kg, mean) was 2.9 L/kg and the Cmax [1, 3] was 869 ng/mL. It also gave a Tmax [1, 3] of 0.083 h, a clearance [1, 3] of 15 mL/min/kg and a half-life [1, 3] of 0.6 h. The AUC [1, 3] was 1060 ng·h/mL, the Vd ([1]; male, Sprague Dawley, plasma, IV, 2 mg/kg, mean, read-out: Vd) was 0.9 L/kg and the bioavailability ([1]; male, Sprague Dawley, plasma, PO 10 mg/kg vs IV 2 mg/kg, read-out: F24 (absolute bioavailability)) was 97.5%. For the same compound, the Cmax [1, 4] was 122 ng/mL, the Tmax [1, 4] was 3 h and the half-life [1, 4] was 2.1 h. It also gave an AUC [1, 4] of 1030 ng·h/mL, an activity at 0.01 µM ([2]; 0.01 μM, read-out: β-hexosaminidase activity (% control untreated cells)) of 88 ± 14% and an activity at 0.1 µM ([2]; 0.1 μM, read-out: β-hexosaminidase activity (% control untreated cells)) of 32 ± 9%. For the same compound, the activity at 1 µM ([2]; 1 μM, read-out: β-hexosaminidase activity (% control untreated cells)) was 3 ± 5%, the IC50 ([2]; read-out: inhibiting mast cell degranulation IC50) was 0.05 µM and the IC50 (Jak3) was 20 µM. For the same compound, the IC50 (c-Met) was 10 µM, the IC50 (VEGFR1) was 7.5 µM and the “ATP production relative to DMSO (100%) Mito ToxGlo” value (HepG2 tumor cell line) was 104%. For the same compound, the “Cytotoxicity relative to DMSO (0%) Mito ToxGlo” value (HepG2 tumor cell line) was 11%, the “ATP production relative to DMSO (100%) Mito ToxGlo” value (HepG2 tumor cell line; listed as compound 001) was 104% and the “Cytotoxicity relative to DMSO (0%) Mito ToxGlo” value (HepG2 tumor cell line; listed as compound 001) was 11%. The “TNFα Cytokine Release (% relative to control Ag + SCF)” value (TNFα; Ag + SCF + 0.01 μM of compound) was 95%, the “TNFα Cytokine Release (Relative Fluorescence Units)” value (TNFα; Ag + SCF + 0.01 μM of compound) was 468 Relative Fluorescence Units and the “TNFα Cytokine Release (% relative to control Ag + SCF)” value (TNFα; Ag + SCF + 0.1 μM of compound) was 32%. The “TNFα Cytokine Release (Relative Fluorescence Units)” value (TNFα; Ag + SCF + 0.1 μM of compound) was 158 Relative Fluorescence Units, the “TNFα Cytokine Release (% relative to control Ag + SCF)” value (TNFα; Ag + SCF + 1 μM of compound) was 2% and the “TNFα Cytokine Release (Relative Fluorescence Units)” value (TNFα; Ag + SCF + 1 μM of compound) was 9.5 Relative Fluorescence Units. For the same compound, the IC50 (TNFα; Mus musculus, BMMC, Ag + SCF stimulated BMMCs) was ~0.05 µM.
